Measured values published in patent US9006271B2, “5-[5-[2-(3,5-bis(trifluoromethyl)phenyl)-2-methylpropanomethylpropanoylmethylamino]-4-(4-fluoro-2-methylphenyl)]-2-pyridinyl-2-alkyl-prolinamide as NK1 receptor antagonists” (Nerre Therapeutics Limited, priority 2008, dated 2015).
Structures can show the parent of a compound that is named as a salt.

Legend:
NK1 receptor = target: T1, NK1 receptor (Meriones unguiculatus, UniProt Q5DUB1); assay: gerbil foot tapping model (GR73632-induced, icv); assay type: in vivo
T1 construct: from tissue; host or cells: living gerbil, central nervous system (in vivo)
T1 sequence (Q5DUB1 whole entry): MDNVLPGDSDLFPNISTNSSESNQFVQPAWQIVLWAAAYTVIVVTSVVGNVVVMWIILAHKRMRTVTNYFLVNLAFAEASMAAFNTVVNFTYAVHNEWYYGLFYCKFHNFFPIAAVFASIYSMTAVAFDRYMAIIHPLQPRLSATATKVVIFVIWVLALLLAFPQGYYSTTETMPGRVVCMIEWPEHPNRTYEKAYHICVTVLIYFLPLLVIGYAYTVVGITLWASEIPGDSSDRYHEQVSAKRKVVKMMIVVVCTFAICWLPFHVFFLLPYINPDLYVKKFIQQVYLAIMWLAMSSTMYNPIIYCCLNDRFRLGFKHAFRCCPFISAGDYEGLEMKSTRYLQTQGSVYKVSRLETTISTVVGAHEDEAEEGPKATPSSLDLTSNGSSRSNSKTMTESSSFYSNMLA
Description: The ability of the compounds of the invention to penetrate the central nervous system and to bind at the NK1 receptor may be determined using the gerbil foot tapping model as described by Rupniak & Williams, Eur. Jour. of Pharmacol., 1994.
Intracerebroventricular (icv) administration of the NK1 receptor agonist GR73632 (R. M. Hagan et al., Neuropeptides 1991, 19 (2), 127-135) a characteristic hind leg foot tapping (GFT) response in gerbils which can be inhibited by potent NK1 receptor antagonists. The gerbil foot tapping paradigm was carried out as follows; gerbils were dosed with compound of the invention, and following an appropriate pre-treatment time were anaesthetised using isofluorane/oxygen mixture. The skull was then exposed and 5 ul of GR73632 (3 pmol conc.) was injected by insertion of a cuffed 25 G needle to a depth of 4 mm below bregma, directly into the lateral ventricle (intracerebroventricular dosing). Immediately following the injection, gerbils were placed individually into a clear observation box to recover. Upon the gerbil regaining its righting reflex, the duration of repetitive hind foot tapping was recorded over a 5 minute period. […]

common marmosets = assay: marmoset human threat test; assay type: in vivo, common marmoset; conditions: for No. jumps (index of locomotor activity): 1 h before test, mean±SEM n=4, vehicle 16.3 ± 1.7
Protocol: For example the marmoset human threat test (Costall et al., 1988 The study utilised in house laboratory-bred male and female common marmosets over 2 years of age, weighing 300-500 g. The animals were caged in couples, in a housing room maintained at 25±1° C., 60% humidity and a 12 hour light/dark cycle (lights on at 0600, with 30 min simulated dawn and twilight). Testing was carried out with the animals situated in the home cage. One hour before the test animals were treated orally with vehicle (0.5% HPMC) or test compound (1 ml/kg). After a wash-out period of at least three days, treatments were reassigned and the study was complete when all animals had received all treatments. Number of specific behavioural postures in response to the human threat and the number of jumps were analysed in this study. The postures recorded in the test were those described by Costall et al (1988). and the number of jumps from the back of the cage to the cage front provided an index of locomotor activity to assess potential for sedation or locomotor stimulation. […] Results are expressed as mean±SEM (n=7). of number of postures and as a mean±SEM (n=4) of number of jumps. Data were subjected to one-way analysis of variance (ANOVA) followed by Dunnett's test, comparing each compound dose with vehicle treatment, using Statistica software (version 8.0) Statistically significant differences with respect to vehicle are indicated as *P<0.01.

Cc1cc(F)ccc1-c1cc([C@H]2CC[C@](C)(C(N)=O)N2)ncc1N(C)C(=O)C(C)(C)c1cc(C(F)(F)F)cc(C(F)(F)F)c1 [Example 11, (5R)-5-[5-[{2-[3,5-bis(trifluoromethyl)phenyl]-2-methylpropanoyl}(methyl)amino]-4-(4-fluoro-2-methylphenyl)-2-pyridinyl]-2-methyl-D-prolinamide bis-hydrochloride]
GR73632-induced foot tapping behaviour (NK1 receptor; 0.3, 1.0 and 3.0 mg/kg p.o., P<0.01): significantly attenuated | ID50 as plasma concentration (NK1 receptor; plasma, p.o.): approximately 5 ng/ml | No. jumps (index of locomotor activity) (common marmosets; 0.1 mg/kg oral): 20.1 ± 2.1 | No. jumps (index of locomotor activity) (common marmosets; 0.3 mg/kg oral): 13.4 ± 2.5 | No. jumps (index of locomotor activity) (common marmosets; 1 mg/kg oral): 13.0 ± 2.1 | effect on number of jumps (common marmosets; 0.1, 0.3 or 1 mg/kg oral): not accompanied by a reduction in the number of jumps | effect on number of postures (common marmosets; 0.1, 0.3 or 1 mg/kg oral, significant at 0.3 and 1 mg/kg (P<0.01)): dose dependent reduction in the number of postures
